“And” between values parts separate entries of the source, which are not always exact repeats. Equal values may be shown once.
Conditions: Fluid (supercritical or subcritical phases), Buoyancy - hydrostatic balance with magnetic suspension - two sinkers

CCC [propane]
Conditions	mass density
265 K, 2141.2 kPa	542.504 kg/m3
265 K, 2141.4 kPa	542.503 kg/m3
265 K, 2144 kPa	542.507 kg/m3 and 542.508 kg/m3
265 K, 2144.3 kPa	542.51 kg/m3
265 K, 2144.8 kPa	542.509 kg/m3
265 K, 2145 kPa	542.509 kg/m3
265 K, 3759.4 kPa	545.171 kg/m3
265 K, 3760 kPa	545.17 kg/m3
265 K, 3760.5 kPa	545.17 kg/m3
265 K, 3766.3 kPa	545.182 kg/m3
265 K, 3771.8 kPa	545.194 kg/m3
265 K, 4142.6 kPa	545.789 kg/m3
265 K, 4145 kPa	545.794 kg/m3
265 K, 4149.1 kPa	545.797 kg/m3
265 K, 4150.8 kPa	545.802 kg/m3
265 K, 8329.8 kPa	552.117 kg/m3
265 K, 8330.5 kPa	552.12 kg/m3
265 K, 8330.7 kPa	552.117 kg/m3
265 K, 8331.9 kPa	552.121 kg/m3
265 K, 8332.3 kPa	552.121 kg/m3
265 K, 12135 kPa	557.342 kg/m3
265 K, 12136 kPa	557.343 kg/m3
265 K, 12137 kPa	557.343 kg/m3
265 K, 16242 kPa	562.533 kg/m3
265 K, 16243 kPa	562.535 kg/m3
265 K, 16245 kPa	562.537 kg/m3
265 K, 16246 kPa	562.537 kg/m3
265 K, 20184 kPa	567.153 kg/m3 and 567.155 kg/m3
265 K, 20189 kPa	567.157 kg/m3
265 K, 20190 kPa	567.159 kg/m3
265 K, 20191 kPa	567.16 kg/m3
265 K, 24029 kPa	571.368 kg/m3
265 K, 24030 kPa	571.371 kg/m3
265 K, 24031 kPa	571.373 kg/m3 and 571.369 kg/m3
265 K, 30007 kPa	577.453 kg/m3 and 577.455 kg/m3 and 577.457 kg/m3
265 K, 30010 kPa	577.458 kg/m3 and 577.459 kg/m3
265 K, 34915 kPa	582.091 kg/m3
265 K, 34916 kPa	582.091 kg/m3 and 582.092 kg/m3 and 582.09 kg/m3
280 K, 2010.8 kPa	522.313 kg/m3
280 K, 2011 kPa	522.314 kg/m3
280 K, 2012.2 kPa	522.319 kg/m3
280 K, 2013 kPa	522.322 kg/m3
280 K, 2016.3 kPa	522.324 kg/m3
280 K, 2020 kPa	522.336 kg/m3
280 K, 2020.8 kPa	522.337 kg/m3
280 K, 2021.2 kPa	522.338 kg/m3
280 K, 2021.3 kPa	522.335 kg/m3
280 K, 2021.4 kPa	522.337 kg/m3
280 K, 4077.8 kPa	526.538 kg/m3
280 K, 4078.2 kPa	526.542 kg/m3
280 K, 4078.3 kPa	526.539 kg/m3
280 K, 4078.4 kPa	526.539 kg/m3
280 K, 8037.8 kPa	533.834 kg/m3
280 K, 8038.9 kPa	533.835 kg/m3
280 K, 8039.6 kPa	533.833 kg/m3
280 K, 8040 kPa	533.836 kg/m3
280 K, 8040.4 kPa	533.836 kg/m3
280 K, 12164 kPa	540.567 kg/m3
280 K, 12165 kPa	540.568 kg/m3
280 K, 12166 kPa	540.568 kg/m3
280 K, 12167 kPa	540.57 kg/m3
280 K, 16052 kPa	546.301 kg/m3 and 546.302 kg/m3
280 K, 16053 kPa	546.299 kg/m3 and 546.301 kg/m3
280 K, 16054 kPa	546.301 kg/m3
280 K, 20169 kPa	551.856 kg/m3
280 K, 20170 kPa	551.857 kg/m3
280 K, 20171 kPa	551.857 kg/m3
280 K, 20173 kPa	551.86 kg/m3
280 K, 24174 kPa	556.843 kg/m3
280 K, 24175 kPa	556.845 kg/m3
280 K, 24178 kPa	556.848 kg/m3
280 K, 29900 kPa	563.396 kg/m3 and 563.395 kg/m3
280 K, 29902 kPa	563.397 kg/m3 and 563.398 kg/m3
280 K, 35491 kPa	569.254 kg/m3
280 K, 35492 kPa	569.255 kg/m3
280 K, 35494 kPa	569.255 kg/m3
280 K, 35496 kPa	569.259 kg/m3
300 K, 2095.9 kPa	492.916 kg/m3
300 K, 2096.6 kPa	492.92 kg/m3
300 K, 2096.7 kPa	492.918 kg/m3
300 K, 2096.8 kPa	492.918 kg/m3
300 K, 2097 kPa	492.917 kg/m3
300 K, 4036.5 kPa	498.494 kg/m3
300 K, 4037.2 kPa	498.496 kg/m3
300 K, 4037.3 kPa	498.493 kg/m3
300 K, 4037.4 kPa	498.494 kg/m3
300 K, 8037.7 kPa	508.391 kg/m3
300 K, 8038 kPa	508.393 kg/m3
300 K, 8038.1 kPa	508.394 kg/m3
300 K, 8038.4 kPa	508.391 kg/m3
300 K, 8038.7 kPa	508.393 kg/m3
300 K, 12024 kPa	516.758 kg/m3
300 K, 12025 kPa	516.758 kg/m3 and 516.759 kg/m3
300 K, 16033 kPa	524.122 kg/m3 and 524.123 kg/m3
300 K, 16035 kPa	524.125 kg/m3
300 K, 16037 kPa	524.128 kg/m3
300 K, 20366 kPa	531.21 kg/m3
300 K, 20369 kPa	531.216 kg/m3
300 K, 20370 kPa	531.214 kg/m3
300 K, 23908 kPa	536.474 kg/m3 and 536.475 kg/m3
300 K, 23909 kPa	536.476 kg/m3
300 K, 23911 kPa	536.479 kg/m3
300 K, 29891 kPa	544.528 kg/m3
300 K, 29892 kPa	544.529 kg/m3 and 544.528 kg/m3
300 K, 35152 kPa	550.916 kg/m3
300 K, 35153 kPa	550.918 kg/m3 and 550.916 kg/m3
300 K, 35154 kPa	550.917 kg/m3
310 K, 261.67 kPa	4.6501 kg/m3
310 K, 261.68 kPa	4.6501 kg/m3 and 4.6502 kg/m3
310 K, 261.69 kPa	4.6502 kg/m3
310 K, 460.64 kPa	8.455 kg/m3 and 8.4548 kg/m3 and 8.4549 kg/m3
310 K, 760.19 kPa	14.7402 kg/m3
310 K, 760.2 kPa	14.7403 kg/m3
310 K, 760.25 kPa	14.7415 kg/m3
310 K, 760.28 kPa	14.7419 kg/m3 and 14.7421 kg/m3
